# Patent publication US20230088704A1, “A PHARMACEUTICAL COMBINATION FOR THE TREATMENT OF A CANCER” (ABILITY PHARMACEUTICALS S.L., priority 2020, published 2023)
# Legend:
# [1] = test system: MT5 cells; assay: Syngeneic pancreatic cancer model, ABTL0812 vs anti-PD1; type: in vivo, C57BL6 mice
# Description: Methods: MT5 cells are a highly tumorigenic murine cell line mutated in KRAS and p53 initially derived from the pancreas of triple transgenic KRAS-p53-Cre (KPC) mice, carrying pancreatic duc-tal adenocarcinoma. […] C57BL6 mice were injected with 2×10^6 MT5 cells in one flank to induce tumor formation. […] The treatment groups were Vehicle, ABTL0812 and anti-PD1. ABTL0812 was administered by the oral route at 480 mg/kg/day. Anti-PD1 antibody was administered i.p. at 200 μg/dose every three days. Tumor volume and body weight were monitored 3 times a week. At the end of the treatments, mice were euthanized, tumors collected and single cell suspension was obtained by digesting tumors using digestion media containing collagenase and lipase and further processing with trypsin and DNAse. Additionally, spleens from treated mice were collected, minced using a strainer, and single cells were obtained after treatment with trypsin and DNAse. After cell suspensions were obtained, cancer cells and immune cells infiltrated withing tumors were stained using specific antibodies against different immune cell subsets and further analyzed using flow cytometry. The combinations used were: Th1 cells=CD45+ CD4+ CCR4− CXCR3+, Th2 cells=CD45+ CD4+ CCR4+ CXCR3−, Myeloid cells=CD45+ CD11b+ Ly6C+ and NKs cells=CD45+ NK1.1+.
# [2] = test system: Ishikawa cells; assay: Human endometrial cancer xenograft, ABTL0812 with olaparib; type: in vivo; details: ABTL0812 oral 120 mg/kg/day; Olaparib oral 50 mg/kg/day
# Description: Methods: Mice were injected with 4×10^6 Ishikawa cells in one flank to induce tumor formation. […] Olaparib was administered by the oral route 50 mg/kg/day. Tumor volume and body weight were monitored 3 times a week.
# [3] = test system: PDL1; assay: PDL1 expression in cancer cells by flow cytometry (Example 6.2); type: cell-based, human; details: ABTL0812 100 μM, 48 hours
# Description: Methods: Human cancer cell lines were incubated with 100 μM of ABTL0812 during 48 hours and collected for staining with anti-PDL1 antibody labeled with a fluorophore. After staining of cells with anti-PDL1 antibody, cells were run on Flow Cytometry (Facs Canto) to analyzed PDL1 levels in cancer cells. Additionally, we incubated Panc-1 cells with ABTL0812 (50 μM), IFNγ (2.5 ng/ml), a master regulator of PDL1 expression or a combination with both. Then, cells were collected, stained with anti-PDL1 antibody and analyzed by Flow Cytometry for the expression of PDL1.
# [4] = test system: JJN-3 cells; assay: Cell viability (MTT) and combination index, ABTL0812 with bortezomib; type: cell-based; details: ABTL0812 5 μM, Bortezomib 0.5 nM, alone or combined; 48h
# Description: (§1) Methods: JJN-3 and OPM2 cells were seeded in 24-well plates and treated with ABTL0812 (5 μM), bortezomib (0.5 and 1 nM respectively) or a combination of both drugs and left in the incubator for 48h (0.5% FBS). Cell viability was studied by the MTT assay and combination index was determined to evaluate a possible synergism.
# (§2) Cell viability was evaluated in all cases by MTT assay and the Combination Index (CI), to evaluate synergism, was calculated according to the method of Chou and Talalay (Chou 2006; Chou 2010), as follows: CI=(D)1/(Dx)1+(D)2/(Dx)2, where CI<1, =1, and >1 indicate synergism, additive effect, and antagonism, respectively. In the denominator, (Dx)1 is for D1 “alone” that inhibits a system x %, and (Dx)2 is for D2 “alone” that inhibits a system x %.
# [5] = test system: OPM2 cells; assay: as above; type: cell-based; details: ABTL0812 5 μM, Bortezomib 1 nM, alone or combined; 48h
# Description: as §1, §2
# [6] = test system: LLC1 cells; assay: Syngeneic lung cancer model, subcutaneous LLC1, survival; type: in vivo, C57BL6 mice; details: ABTL0812 oral 120 mg/kg/day, anti-PD1 i.p. 100 ug/dose every three days
# Description: C57BL6 mice were injected with 0.25×10^6 LLC1 cells in one flank to induce tumor formation. […] Tumor volume and body weight were monitored 3 times a week. End point criteria was based on tumors over 800 mm3, or clinical signs of toxicity, distress or suffering indicative of animal euthanasia.
# [7] = test system: endometrial carcinogenesis induced by the deletion of PTEN; assay: Endometrial carcinogenesis induced by PTEN deletion; type: in vivo, mice; details: ABTL0812 120 mg/kg daily during 3 weeks
# Description: Methods: Mice were injected with tamoxifen to induce PTEN deletion. Three weeks after tamoxifen administration, when animal has developed hyperplasias, animals were administered with ABTL0812 at 120 mg/kg daily or with vehicle during 3 weeks. At that time, vehicle treated animals (6 weeks after tamoxifen injection) develop neoplasias, which are quantified by immunohistochemistry of extracted uterus. After ABTL0812 treatment, animals were sacrificed, uterus extracted in paraffin-embedded for further immunohistochemical analysis by hematoxylin-eosin staining for carcinogenesis evaluation or with anti-CD3 to evaluate T lymphocyte infiltration within tumoral lesions, indicative of tumor microenvironment immunomodulation.
# [8] = test system: PMA-activated THP-1 macrophages; assay: Conditioned media of ABTL0812-treated MiaPaca2 cells on THP-1 macrophages; type: cell-based, human; details: conditioned media from MiaPaca2 cells treated with ABTL0812 40 μM 72 hours
# Description: Methods: MiaPaca2 cells were incubated with 40 μM of ABTL0812 during 72 hours and conditioned media (RPMI) of these ABTL0812-treated cells were collected. In parallel, human THP-1 cells were differentiated to macrophages by incubation with PMA (Phorbol myristate acetate) for 24 hours, inducing their attachment to the plates. Then, conditioned media from ABTL0812-treated MiaPaca2 cells was transferred to PMA-activated THP-1 macrophages and incubated during 24 hours for RT-qPCR analysis of M1 phenotype markers IL-1β and TNF-α, or during 48 hours for cell viability studies using the MTT assay. For M1 marker analysis, cells were collected, RNA extracted, retrotranscribed to cDNA and mRNA levels of IL-1β and TNF-α assessed by RT-qPCR.
# [9] = test system: LA1-5S cells; assay: Cell viability (crystal violet), ABTL0812 with cyclophosphamide; type: cell-based; details: ABTL0812 30 μM + cyclophosphamide 1, 1.5, 2 μM; 72 hours
# Description: Methods: LA1-5S cells were incubated with increasing concentrations of cyclophosphamide (1 μM, 1.5 μM and 2 μM) and a subIC50 fixed concentration of ABTL0812 (30 μM). Cells were treated for 72 hours in IMDM with 0.5% FBS. Cell viability was evaluated by crystal violet assay. Data is presented as mean±SEM of three independent experiments. Statistical analyses were performed according to the T-Test principle with GraphPad Prism® 5.0 software (*p<0.05; **p<0.01; ***p<0.001).
structure (smiles),measurement,setting,value
"CCCCC/C=C\C/C=C\CCCCCCC(O)C(=O)O (stereo not drawn) [ABTL0812, COOH—CHOH—(CH2)6—(CH═CH—CH2)2—(CH2)3—CH3]",tumor volume,"[1]; ABTL0812 oral 480 mg/kg/day, anti-PD1 i.p. 200 μg/dose every three days",significantly decreasing tumor volume compared with vehicle treatment group
same,Th1/Th2 ratio in spleen,[1]; flow cytometry,increase in the Th1/Th2 ratio
same,Myeloid cells within tumors,"[1]; flow cytometry, CD45+ CD11b+ Ly6C+",increase of Myeloid cells within tumors
same,percentage of NK cells within tumor,"[1]; flow cytometry, CD45+ NK1.1+",increase in the percentage of NK cells within tumor
same,tumor volume,[2],significantly reduced tumor volume
same,"PDL1 expression, increase from basal levels",[3]; Capan-2 cells,86%
same,"PDL1 expression, increase from basal levels",[3]; MiaPaca2 cells,34%
same,cell death,[4],around 10%
same,cell death,[5],around 20%
same,survival,[6]; after 9 days of treatment,43%
same,survival,[6]; after 14 days of treatment,15%
same,development of endometrial intraepithelial neoplasias (EIN),[7],significant reduction in the development of endometrial intraepithelial neoplasias
same,CD3 T lymphocyte infiltration,[7]; anti-CD3 immunohistochemistry,induce the infiltration of CD3 T lymphocytes within tumoral lesions
same,animals with hyperplasias,[7]; hematoxylin-eosin staining,80%
same,gene expression of IL-1β,[8]; 24 hours on macrophages,significantly increasing the gene expression
same,gene expression of TNF-α,[8]; 24 hours on macrophages,significantly increasing the gene expression
same,THP-1 cell viability (MTT),[8]; 48 hours on macrophages,significantly increasing THP-1 cell viability
same,cyclophosphamide cytotoxicity on addition of ABTL0812,[9],significantly increased cyclophosphamide cytotoxicity at 1 μM
